According to patent publication US20260242414A1, “PEPTIDE EXPRESSION CONSTRUCTS AND USES THEREOF” (KYOTO PREFECTURAL PUBLIC UNIVERSITY CORPORATION, priority 2023, published 2026):

How the values were obtained:
[1] = system: GFPP1-10 expressing A549 cells; experiment: mCherry and GFP expression in presence and absence of TMP; format: cell-based; conditions: cells transfected with mCherry-DHFR-P2A-GFPβ11, following addition of TMP, FIG. 7B
From the text: The mCherry-DHFR-P2A-GFPβ11 peptide expression unit was introduced into GFPP1-10 expressing A549 cells and mCherry and GFP expression levels were examined in the presence and absence of TMP.
Indeed, the percentage of cells expressing mCherry upon TMP treatment was similar in cells transfected with an m-Cherry only plasmid and cells transfected with a plasmid comprising the mCherry-DHFR-P2A-GFPβ11 peptide expression unit (FIGS. 7C and 7E).

[2] = system: Drp1-Fis1; experiment: Immunoprecipitation with Fis1 followed by immunoblotting with Drp1; format: cell-based; conditions: doxorubicin treatment, FIG. 10I-10K
Experimental: Association of Drp1 and Fis1 is an intracellular PPI that is associated with mitochondrial dysfunction. To determine whether interaction of Fis1 and Drp1 was associated with the accumulation of Drp1 at the mitochondrial membrane, immunoprecipitation with Fis1 followed by immunoblotting with Drp1 was performed.

[3] = system: H9c2 cells; experiment: Doxorubicin-induced hyperfission (MiNA) and cell death (DAPI/annexin5 FACS); format: cell-based
Experimental: The anti-apoptotic effect of peptide expression unit mRNA comprising the P110 coding sequence was assessed in H9c2 cells upon doxorubicin exposure, a treatment that induces mitochondrial stress, hyperfission, and cell death. Briefly, H92c cells were seeded on day 0 and lipofected with an mRNA of a peptide expression unit comprising P110 coding sequence on day 1 and treated with TMP. After 12 hours, the medium was changed, and the cells were treated with doxorubicin for 3 to 6 hours. As with LPS exposure assessments in Example 4, the effect of P110 on hyperfission was assessed via mitotracker green staining, followed by MiNA.
The increase in doxorubicin-induced fission was accompanied by an increase in footprint, a measure of mitochondrial mass, due to the expression of P110 from mRNA expression units, and by an increase in the length, number, and area of branching (FIGS. 9A-9F).

[4] = system: H9c2 cells; experiment: Mitochondrial respiration, Seahorse XF Cell Mito Stress Test flux analysis; format: cell-based; conditions: doxorubicin treatment; for mitochondrial respiration (oxygen consumption rate): FIG. 9I; for basal respiration: FIG. 9J; for ATP production: FIG. 9J-9M; for maximum respiration: FIG. 9K; for spare respiratory capacity: FIG. 9M; for proton leakage: FIG. 9N; for non-mitochondrial oxygen consumption: FIG. 9O
Experimental: Next, the effect of P110 expression on mitochondrial hyperfission was evaluated in the context of mitochondrial respiratory function. Briefly, oligomycin (2 μM), carbonyl cyanide p-trifluoromethoxyphenyl hydrazone (FCCP, 2 μM) and rotenone/antimycin A (0.5 μM), which were adjusted using the reagents in the Seahorse XF Cell Mito Stress Test Kit (103015-100, Agilent Technologies), were sequentially added to each well with 1×10^5 cells after baseline measurements with an XFe96 extracellular flux analyzer (Agilent Technologies, Santa Clara, CA, USA), and data were presented as oxygen consumption rate (pmol/min).

[5] = system: H9c2 cells; experiment: Western blot of apoptosis-associated proteins (cleaved caspase-3, cytochrome c, mitochondrial Drp1); format: cell-based; conditions: for Drp1 in mitochondrial fractions (accumulation/aggregation): doxorubicin exposure, FIG. 10G-10H
Experimental: (§1) P110-expressing cells counteracted doxorubicin-induced apoptosis as well as gene transfer-associated induction of cell death (FIGS. 10A-10B). Next, doxorubicin-induced activation of caspase-3, which is a cysteine-aspartic acid protease that plays a central role in the execution-phase of cell apoptosis, was evaluated.
Hyperfission-associated release of cytochrome c from mitochondria triggers apoptosis; therefore, the release of cytochrome c in response to doxorubicin was evaluated. […] Given that P110 inhibits the recruitment of Drp1 to the mitochondrial membrane during fission, Drp1 in mitochondrial fractions were evaluated to determine whether the introduction of P110 mRNA affected this mechanism.

[6] = system: H9c2 cells; experiment: Doxorubicin-induced apoptosis, FACS with DAPI and Annexin V; format: cell-based; conditions: doxorubicin-treated cells, FIG. 10A-10B
Experimental: as §1

[7] = system: H9c2 cells; experiment: LPS-induced hyperfission: mitotracker green/MiNA, MitoSOX, TMRM; format: cell-based; conditions: for mitochondrial ROS (MitoSOX): FIG. 8J-8K
Experimental: Next, lipopolysaccharide (LPS) was used as an external stressor to trigger hyperfission. Briefly, H92c cells were seeded on day 0 and lipofected with an mRNA of a peptide expression unit comprising P110 coding sequence on day 1 and treated with TMP. After 12 hours, the medium was changed, and the cells were treated with LPS for 12 hours and mitochondrial morphology of cells was evaluated using mitotracker green staining and Mitochondrial Network Analysis (MiNA). LPS-induced changes in mitochondrial reactive oxygen species (ROS) production were evaluated using MitoSOX staining. LPS-induced changes in mitochondrial membrane potential were evaluated using TMRM staining. For the purposes of this assessment, mCherry-positive cells were assumed to express transgenic P110, whereas mCherry-negative cells were assumed to lack transgenic P110 and were assessed separately (FIG. 8D). […] LPS treatment was associated with an increase in mitochondrial ROS, which was inhibited in P110-expressing cells (FIGS. 8J-8K), and with an increase in mitochondrial membrane potential per unit volume (FIGS. 8L-8N). Taken together, expression of P110 in cells suppressed mitophagy-related changes induced by LPS treatment.

[8] = target: GFP β strand 1-10 (GFPβ1-10); experiment: cell-based or functional assay
[9] = doxorubicin 3 to 6 hours, FIG. 9A-9F

Chain of Drp1-Fis1 (O00429 whole entry): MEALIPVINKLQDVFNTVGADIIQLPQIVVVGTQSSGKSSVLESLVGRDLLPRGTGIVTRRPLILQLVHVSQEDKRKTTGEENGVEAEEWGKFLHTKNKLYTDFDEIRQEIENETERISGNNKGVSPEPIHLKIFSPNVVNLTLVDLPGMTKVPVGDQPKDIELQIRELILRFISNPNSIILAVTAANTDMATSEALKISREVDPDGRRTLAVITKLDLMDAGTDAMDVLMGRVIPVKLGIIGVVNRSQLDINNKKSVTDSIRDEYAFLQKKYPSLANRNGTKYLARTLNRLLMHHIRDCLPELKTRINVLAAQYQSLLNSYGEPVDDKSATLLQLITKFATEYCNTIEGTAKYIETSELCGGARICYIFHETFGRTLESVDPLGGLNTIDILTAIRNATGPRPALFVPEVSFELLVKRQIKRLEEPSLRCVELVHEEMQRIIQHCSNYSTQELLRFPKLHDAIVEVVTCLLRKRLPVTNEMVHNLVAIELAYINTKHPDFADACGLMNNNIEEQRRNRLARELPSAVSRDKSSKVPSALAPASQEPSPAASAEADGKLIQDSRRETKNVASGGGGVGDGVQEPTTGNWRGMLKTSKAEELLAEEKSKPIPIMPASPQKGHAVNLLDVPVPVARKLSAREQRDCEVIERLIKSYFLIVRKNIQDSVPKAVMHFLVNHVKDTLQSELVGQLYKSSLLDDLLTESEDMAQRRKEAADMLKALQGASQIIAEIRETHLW

COc1cc(Cc2cnc(N)nc2N)cc(OC)c1OC [TMP, trimethoprim]
mCherry expression (FACS) [1]: increased sharply

COc1cccc2c1C(=O)c1c(O)c3c(c(O)c1C2=O)C[C@@](O)(C(=O)CO)C[C@@H]3O[C@H]1C[C@H](N)[C@H](O)[C@H](C)O1 [doxorubicin]
Drp1 co-immunoprecipitated with Fis1 [2]: significantly enhanced | cell death, DAPI/annexin5 double positive cells (FACS) ([3]; doxorubicin-treated H9c2 cells, FIG. 9G-9H): ~15 % of cells | mitochondrial respiration (oxygen consumption rate) [4]: decreased | basal respiration [4]: significantly decreased | ATP production [4]: significantly decreased | maximum respiration [4]: significantly decreased | spare respiratory capacity [4]: significantly decreased | proton leakage [4]: decrease | non-mitochondrial oxygen consumption [4]: significantly decreased | Drp1 in mitochondrial fractions (accumulation/aggregation) [5]: strong accumulation

DLLPRGT [P110]
doxorubicin-induced apoptosis (DAPI/Annexin V FACS) [6]: counteracted | Drp1 co-immunoprecipitated with Fis1 [2]: restored to almost control levels | footprint, a measure of mitochondrial mass (MiNA) [3, 9]: increase | length, number, and area of branching (MiNA) [3, 9]: increase | mitochondrial respiration (oxygen consumption rate) [4]: attenuated | basal respiration [4]: significant attenuation | ATP production [4]: significant attenuation | maximum respiration [4]: significant attenuation | spare respiratory capacity [4]: comparable to that observed in untreated control cells | proton leakage [4]: slightly improved | non-mitochondrial oxygen consumption [4]: significant attenuation | non-mitochondrial apoptotic pathways ([5]; doxorubicin): unaffected | Drp1 in mitochondrial fractions (accumulation/aggregation) [5]: significantly prevented | cytochrome c release ([5]; doxorubicin, FIG. 10E-10F): completely suppressed | cleaved caspase-3 expression (western blot) ([5]; effects of gene transfer method and doxorubicin, FIG. 10C-10D): reduced | mitochondrial ROS (MitoSOX) ([7]; LPS treatment 12 hours): inhibited | indications of hyperfission: branching length, area of branching points, number of branching points (MiNA) ([7]; mCherry-positive cells, LPS 12 hours, FIG. 8D-8I): reversed indications of hyperfission

GFP β strand 11 (GFPβ11) (peptide)
GFP-positive fraction of mCherry-positive cells (split GFP complementation), FACS, H9c2 cells [8]: 40%

lipopolysaccharide [LPS]
mitochondrial ROS (MitoSOX) ([7]; LPS treatment 12 hours): increase | mitochondrial membrane potential per unit volume (TMRM) ([7]; LPS treatment 12 hours, FIG. 8L-8N): increase
